Laboratory results as given in ChEMBL document CHEMBL1201862, “PubChem BioAssay data set” (2004).
Blank lines part the entries; values can stand above or below the compound they belong to. Activity calls are given as the source filed them.

How the values were obtained:
Paired box protein Pax-8 = Paired box protein Pax-8 (Homo sapiens, UniProt Q06710); experiment: PAX8 transcriptional activity inhibition in RMG-I – RMG-I cells, luciferase, cherry-pick, dose response (AID 687027); type: functional, cell-based;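 also: luciferase reporter driven by Pax8 target thyroperoxidase promoter measured by SteadyGlo luminescence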
[1] = molecular target: Hepatocyte nuclear factor 4-alpha (Homo sapiens, UniProt P41235); type: functional, cell-based;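 also: biochemical luminescence-based dose-response counterscreen measuring inhibition of HNF4 dimerization, run alongside a screen for blockers of ABHD5–perilipin-5 interaction; split luciferase complementation of HNF4 fusion proteins in cell lysate measuring dimerization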
[2] = molecular target: T1, Sentrin-specific protease 1 (Homo sapiens, UniProt Q9P0U3); experiment: SENP1 catalytic domain blockers, concentration series – biochemical, kinetic FRET, dose response (AID 651697); type: functional; details: read-out: IC50_Mean
[3] = molecular target: T1, Sentrin-specific protease 1; experiment: Dose response confirmation of small molecule inhibitors of the catalytic domain of the SUMO protease, SENP1 in a FRET assay.; type: functional; details: read-out: IC50_Mean
[4] = molecular target: T2, ATP-dependent translocase ABCB1 (Homo sapiens, UniProt P08183); experiment: P-gp JC-1 efflux blockade concentration-response – Jurkat-DNR cells, flow cytometry, set 2, dose response (AID 504569); type: functional; details: read-out: EC50_MICROM_;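 also: potency of pump inhibitors that raise cellular JC-1 green fluorescence up to the nicardipine level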
[5] = molecular target: T2, ATP-dependent translocase ABCB1; experiment: inhibition of BCRP-mediated JC-1 efflux – Ig-MXP3 cells, flow cytometry, set 2, dose response (AID 504566); type: functional; details: read-out: EC50_MICROM_;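 also: flow cytometry median green fluorescence of retained JC-1 dye; potency of efflux pump inhibition measured as rising substrate retention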
[6] = general mammalian cell viability loss – activator set, cherry-pick, cytotoxicity control for miR-122 modulator project, dose response (AID 720690); type: functional, cell-based;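 also: HEK293T human cells scored for general mammalian cytotoxicity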
[7] = activation of miR-122 Renilla sensor silencing – cell-based, Huh7 psiCHECK-miR122, Renilla luciferase, cherry-picked, dose response (AID 651956); type: functional;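 also: huh7 hepatoma cells stably carrying a psiCHECK-2 miR-122 sensor plasmid; renilla luciferase signal reporting endogenous miR-122 activity after 48 h compound exposure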
Vero = experiment: viability loss in Vero cells – cell-based, plate reader, cherry-pick samples, cytotoxicity control, dose response (AID 687020); type: functional; details: Chlorocebus sabaeus
[8] = T. cruzi growth inhibition in host cells, dose response, cell-based, plate reader, dry powder, set 2 (AID 652275); type: functional
[9] = anti-trypanosomal activity in BESM host cells – imaging, CA-I/72 strain, bovine embryo skeletal muscle, dry powder, dose response (AID 651885); type: functional, cell-based
[10] = molecular target: T3, Trace amine-associated receptor 1 (Homo sapiens, UniProt Q96RJ0); experiment: Counterscreen for agonists of the human trace amine associated receptor 1 (hTAAR1): Fluorescence-based cell-based high throughput dose response assay to identify hTAAR1 agonist that also desensitize TAAR1 receptor response.; type: functional
T3 sequence (Q96RJ0 whole entry): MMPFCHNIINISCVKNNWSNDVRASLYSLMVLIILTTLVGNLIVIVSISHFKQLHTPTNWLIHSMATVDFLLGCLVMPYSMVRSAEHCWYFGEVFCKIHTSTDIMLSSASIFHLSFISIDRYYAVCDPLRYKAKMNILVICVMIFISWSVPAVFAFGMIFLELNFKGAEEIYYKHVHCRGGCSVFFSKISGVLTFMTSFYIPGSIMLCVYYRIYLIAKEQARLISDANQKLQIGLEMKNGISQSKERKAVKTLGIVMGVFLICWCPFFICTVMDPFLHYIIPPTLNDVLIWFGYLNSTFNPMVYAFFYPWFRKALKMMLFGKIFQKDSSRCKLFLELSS

Mu-type opioid receptor = Mu-type opioid receptor (Homo sapiens, UniProt P35372); type: functional, cell-based;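 also: U2OS cells with beta-arrestin recruitment to OPRM1 by beta-gal complementation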
[11] = molecular target: FAD-linked sulfhydryl oxidase ALR (Homo sapiens, UniProt P55789); experiment: ALR-catalysed DTT oxidation blockers – biochemical, H2O2 detection, luminescence, cherry-pick, dose response (AID 493248)
[12] = molecular target: T3, Trace amine-associated receptor 1; experiment: Fluorescence-based cell-based high throughput dose response assay to identify agonists of the human trace amine associated receptor 1 (TAAR1).; type: functional
Large T antigen = Large T antigen (Simian virus 40, UniProt P03070); type: functional, Betapolyomavirus macacae;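 also: Confirmatory-stage PubChem screen for compounds that inhibit SV40 T antigen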
Galanin receptor type 3 = Galanin receptor type 3 (Homo sapiens, UniProt O60755); experiment: Fluorescence-based cell-based primary high throughput dose response assay to identify antagonists of the Galanin Receptor 3 (GalR3).; type: functional
[13] = molecular target: 5-hydroxytryptamine receptor 2A (Mus musculus, UniProt P35363); type: functional, cell-based;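 also: CHO-K1 cells with tagged receptor and beta-arrestin; agonist potency measured as compound-induced activation of the receptor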
Protein skinhead-1 = molecular target: T4, Protein skinhead-1 (Caenorhabditis elegans, UniProt P34707); type: functional
T4 sequence (P34707 whole entry): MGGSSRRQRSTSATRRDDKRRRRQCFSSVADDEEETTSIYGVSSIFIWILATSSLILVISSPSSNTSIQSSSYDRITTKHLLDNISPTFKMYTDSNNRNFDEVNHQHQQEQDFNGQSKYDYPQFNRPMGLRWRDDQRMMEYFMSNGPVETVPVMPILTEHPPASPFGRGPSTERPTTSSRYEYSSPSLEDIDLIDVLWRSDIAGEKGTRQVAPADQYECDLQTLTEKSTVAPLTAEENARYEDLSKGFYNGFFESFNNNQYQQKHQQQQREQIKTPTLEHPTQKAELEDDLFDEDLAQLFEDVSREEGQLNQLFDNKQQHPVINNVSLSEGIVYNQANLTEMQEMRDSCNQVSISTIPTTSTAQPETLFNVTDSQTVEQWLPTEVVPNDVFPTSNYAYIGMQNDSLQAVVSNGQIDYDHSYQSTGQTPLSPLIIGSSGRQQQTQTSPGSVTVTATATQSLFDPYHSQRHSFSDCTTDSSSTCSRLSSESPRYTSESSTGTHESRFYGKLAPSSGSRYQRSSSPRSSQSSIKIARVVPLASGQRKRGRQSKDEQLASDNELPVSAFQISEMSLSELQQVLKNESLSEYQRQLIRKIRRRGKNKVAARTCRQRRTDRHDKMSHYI

T2 sequence (P08183 whole entry): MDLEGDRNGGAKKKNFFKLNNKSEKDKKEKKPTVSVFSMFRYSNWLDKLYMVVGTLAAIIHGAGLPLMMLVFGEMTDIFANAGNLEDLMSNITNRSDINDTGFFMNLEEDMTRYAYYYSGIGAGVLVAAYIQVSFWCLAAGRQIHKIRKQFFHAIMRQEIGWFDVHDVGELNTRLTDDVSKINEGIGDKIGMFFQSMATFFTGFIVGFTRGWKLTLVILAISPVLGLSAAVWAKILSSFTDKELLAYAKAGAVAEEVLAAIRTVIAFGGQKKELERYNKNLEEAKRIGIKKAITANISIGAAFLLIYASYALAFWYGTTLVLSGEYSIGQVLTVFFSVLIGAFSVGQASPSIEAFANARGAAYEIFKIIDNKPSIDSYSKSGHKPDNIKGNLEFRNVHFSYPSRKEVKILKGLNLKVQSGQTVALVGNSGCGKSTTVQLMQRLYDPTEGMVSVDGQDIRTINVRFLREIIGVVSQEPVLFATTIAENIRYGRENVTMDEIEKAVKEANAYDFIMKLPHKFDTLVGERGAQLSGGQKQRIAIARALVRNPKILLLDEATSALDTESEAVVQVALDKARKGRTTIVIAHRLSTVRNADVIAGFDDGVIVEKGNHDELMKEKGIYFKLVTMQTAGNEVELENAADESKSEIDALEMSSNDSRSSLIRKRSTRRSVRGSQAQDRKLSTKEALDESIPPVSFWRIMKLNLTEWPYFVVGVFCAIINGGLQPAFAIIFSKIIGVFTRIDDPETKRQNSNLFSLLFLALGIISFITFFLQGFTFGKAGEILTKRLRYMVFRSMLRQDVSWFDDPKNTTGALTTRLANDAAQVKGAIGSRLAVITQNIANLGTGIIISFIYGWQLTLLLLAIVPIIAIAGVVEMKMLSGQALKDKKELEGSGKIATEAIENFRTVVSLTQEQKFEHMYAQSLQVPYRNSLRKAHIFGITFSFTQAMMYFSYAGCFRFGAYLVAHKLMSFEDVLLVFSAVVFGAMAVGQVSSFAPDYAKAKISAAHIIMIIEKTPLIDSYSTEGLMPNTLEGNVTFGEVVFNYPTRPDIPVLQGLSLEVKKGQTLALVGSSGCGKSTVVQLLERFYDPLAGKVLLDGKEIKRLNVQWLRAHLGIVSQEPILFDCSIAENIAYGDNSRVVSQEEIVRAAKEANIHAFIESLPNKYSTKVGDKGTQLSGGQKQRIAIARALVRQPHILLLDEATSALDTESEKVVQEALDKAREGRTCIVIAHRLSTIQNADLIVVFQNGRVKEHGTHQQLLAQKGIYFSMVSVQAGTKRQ
T1 sequence (Q9P0U3 whole entry, the tested form may be a part): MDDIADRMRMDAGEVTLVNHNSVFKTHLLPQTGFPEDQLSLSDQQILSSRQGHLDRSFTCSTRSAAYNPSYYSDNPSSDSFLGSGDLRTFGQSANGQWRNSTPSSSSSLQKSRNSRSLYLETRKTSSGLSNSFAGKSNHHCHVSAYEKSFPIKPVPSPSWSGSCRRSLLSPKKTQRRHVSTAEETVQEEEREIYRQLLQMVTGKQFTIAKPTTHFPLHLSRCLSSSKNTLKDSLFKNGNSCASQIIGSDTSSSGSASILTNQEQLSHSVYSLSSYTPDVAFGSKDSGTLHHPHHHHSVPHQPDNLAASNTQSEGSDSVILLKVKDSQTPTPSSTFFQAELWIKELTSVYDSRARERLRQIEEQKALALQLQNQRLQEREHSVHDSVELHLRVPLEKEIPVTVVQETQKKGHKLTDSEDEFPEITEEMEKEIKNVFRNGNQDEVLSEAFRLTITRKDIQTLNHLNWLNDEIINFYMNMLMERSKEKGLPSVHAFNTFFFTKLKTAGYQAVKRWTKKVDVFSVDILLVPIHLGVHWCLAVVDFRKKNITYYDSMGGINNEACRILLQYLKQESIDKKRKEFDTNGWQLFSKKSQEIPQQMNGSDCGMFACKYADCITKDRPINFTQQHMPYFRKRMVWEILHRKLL
Sequence of FAD-linked sulfhydryl oxidase ALR (P55789 whole entry): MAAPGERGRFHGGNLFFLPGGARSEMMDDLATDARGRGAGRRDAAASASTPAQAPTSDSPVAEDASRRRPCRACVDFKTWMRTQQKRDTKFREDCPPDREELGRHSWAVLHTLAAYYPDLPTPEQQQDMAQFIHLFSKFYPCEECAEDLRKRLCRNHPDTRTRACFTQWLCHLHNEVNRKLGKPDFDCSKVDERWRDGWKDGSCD
Sequence of Paired box protein Pax-8 (Q06710 whole entry, the tested form may be a part): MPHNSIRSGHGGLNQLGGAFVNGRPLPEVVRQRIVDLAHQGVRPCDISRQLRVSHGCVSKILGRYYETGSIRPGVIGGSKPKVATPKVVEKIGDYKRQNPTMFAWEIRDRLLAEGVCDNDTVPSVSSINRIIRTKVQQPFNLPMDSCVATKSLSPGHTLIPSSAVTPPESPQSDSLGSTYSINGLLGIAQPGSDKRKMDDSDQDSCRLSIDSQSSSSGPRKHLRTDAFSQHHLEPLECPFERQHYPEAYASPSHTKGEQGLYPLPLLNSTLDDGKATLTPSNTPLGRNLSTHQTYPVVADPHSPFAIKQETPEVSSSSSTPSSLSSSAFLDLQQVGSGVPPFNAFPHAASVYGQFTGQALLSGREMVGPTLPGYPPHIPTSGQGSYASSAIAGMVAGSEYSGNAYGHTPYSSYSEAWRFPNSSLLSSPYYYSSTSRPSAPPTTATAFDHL
Sequence of Mu-type opioid receptor (P35372 whole entry): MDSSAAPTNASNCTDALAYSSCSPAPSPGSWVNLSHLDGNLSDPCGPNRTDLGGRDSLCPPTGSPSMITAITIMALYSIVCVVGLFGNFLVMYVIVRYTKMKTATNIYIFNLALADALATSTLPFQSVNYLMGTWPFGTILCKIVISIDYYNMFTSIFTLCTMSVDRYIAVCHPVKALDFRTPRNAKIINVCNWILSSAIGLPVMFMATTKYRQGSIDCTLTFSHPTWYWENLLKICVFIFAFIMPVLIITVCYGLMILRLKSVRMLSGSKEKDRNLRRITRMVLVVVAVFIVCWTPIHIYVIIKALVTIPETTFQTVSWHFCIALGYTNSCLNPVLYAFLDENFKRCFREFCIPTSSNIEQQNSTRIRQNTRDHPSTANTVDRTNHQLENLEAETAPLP
Sequence of Galanin receptor type 3 (O60755 whole entry): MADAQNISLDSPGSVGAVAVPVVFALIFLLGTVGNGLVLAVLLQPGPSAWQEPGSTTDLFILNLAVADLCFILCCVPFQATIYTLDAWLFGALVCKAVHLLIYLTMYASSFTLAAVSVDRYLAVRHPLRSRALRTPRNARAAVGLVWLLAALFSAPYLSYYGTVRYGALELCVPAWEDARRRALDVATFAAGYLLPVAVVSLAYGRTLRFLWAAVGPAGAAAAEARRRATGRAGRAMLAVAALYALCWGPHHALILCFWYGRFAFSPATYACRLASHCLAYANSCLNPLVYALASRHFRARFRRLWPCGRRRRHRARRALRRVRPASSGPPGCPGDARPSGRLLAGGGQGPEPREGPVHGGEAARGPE
Sequence of Hepatocyte nuclear factor 4-alpha (P41235 whole entry, the tested form may be a part): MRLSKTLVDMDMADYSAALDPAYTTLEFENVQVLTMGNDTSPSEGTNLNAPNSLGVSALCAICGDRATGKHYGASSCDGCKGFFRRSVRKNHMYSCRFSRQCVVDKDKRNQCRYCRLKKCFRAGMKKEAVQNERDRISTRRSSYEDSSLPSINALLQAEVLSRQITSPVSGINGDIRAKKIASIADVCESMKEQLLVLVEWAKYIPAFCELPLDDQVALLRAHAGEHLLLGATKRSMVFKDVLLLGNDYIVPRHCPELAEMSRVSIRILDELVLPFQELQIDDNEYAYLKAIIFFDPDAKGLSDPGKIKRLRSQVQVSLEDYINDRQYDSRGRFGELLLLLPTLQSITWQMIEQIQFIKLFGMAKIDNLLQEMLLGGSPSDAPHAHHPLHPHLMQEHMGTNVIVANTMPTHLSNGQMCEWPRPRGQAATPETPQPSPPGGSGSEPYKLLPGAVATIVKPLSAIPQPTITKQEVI
Sequence of Large T antigen (P03070 whole entry): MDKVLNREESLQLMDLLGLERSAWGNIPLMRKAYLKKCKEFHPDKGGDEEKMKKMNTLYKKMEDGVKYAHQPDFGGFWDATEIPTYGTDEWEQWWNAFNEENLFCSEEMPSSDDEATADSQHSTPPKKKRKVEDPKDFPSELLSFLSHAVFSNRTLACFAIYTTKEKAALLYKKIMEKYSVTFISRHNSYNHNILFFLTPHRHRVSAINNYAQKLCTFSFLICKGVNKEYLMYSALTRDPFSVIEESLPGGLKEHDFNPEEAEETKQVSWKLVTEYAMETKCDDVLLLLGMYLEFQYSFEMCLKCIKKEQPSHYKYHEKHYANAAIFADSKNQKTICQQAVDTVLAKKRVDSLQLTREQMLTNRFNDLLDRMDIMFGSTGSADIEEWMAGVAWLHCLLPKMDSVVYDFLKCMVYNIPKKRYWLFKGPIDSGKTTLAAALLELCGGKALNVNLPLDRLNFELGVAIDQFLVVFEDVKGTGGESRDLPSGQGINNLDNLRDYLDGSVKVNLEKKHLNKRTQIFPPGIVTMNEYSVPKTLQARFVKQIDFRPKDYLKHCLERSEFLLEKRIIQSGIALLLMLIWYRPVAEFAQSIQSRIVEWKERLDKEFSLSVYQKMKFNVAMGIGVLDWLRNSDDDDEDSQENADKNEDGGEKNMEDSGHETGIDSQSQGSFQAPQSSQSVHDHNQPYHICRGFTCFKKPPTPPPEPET
Sequence of 5-hydroxytryptamine receptor 2A (P35363 whole entry): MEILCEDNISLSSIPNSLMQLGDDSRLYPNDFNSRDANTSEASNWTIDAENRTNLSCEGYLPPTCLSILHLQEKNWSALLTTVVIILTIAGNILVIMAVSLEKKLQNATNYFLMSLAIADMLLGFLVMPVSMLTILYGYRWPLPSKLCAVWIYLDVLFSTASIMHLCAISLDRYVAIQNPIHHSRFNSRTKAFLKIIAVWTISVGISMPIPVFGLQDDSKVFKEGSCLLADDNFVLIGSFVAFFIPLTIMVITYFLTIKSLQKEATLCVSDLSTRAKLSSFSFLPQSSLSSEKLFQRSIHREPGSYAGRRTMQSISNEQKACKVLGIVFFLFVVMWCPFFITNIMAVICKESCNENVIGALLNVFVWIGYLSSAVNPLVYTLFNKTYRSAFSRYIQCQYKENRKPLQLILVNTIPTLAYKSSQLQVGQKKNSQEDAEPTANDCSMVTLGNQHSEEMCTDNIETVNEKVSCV

Compound: C[C@H](NC(=O)C[C@H]1CC[C@@H]2[C@@H](COc3ccc(NS(=O)(=O)c4ccc(Cl)cc4)cc3C(=O)N2C)O1)c1ccccc1
AC50 [6]: 29.5 µM (active)
AC50 [7]: 18.2 µM (active)

Compound: O=C(NCCN1CCC2(CC1)C(=O)NCN2c1ccccc1)c1ccccc1F
AC50 (Vero): 31.5 µM (active)

Compound: CC(C)N1C[C@@H](CN(C)Cc2ccc(Cl)cc2)Oc2c(NC(=O)c3ccnn3C)cccc2C1=O
AC50 [8]: 0.334 µM (active)

Compound: CC(C)N1C[C@H](C)[C@@H](CN(C)C(=O)OC(C)(C)C)Oc2c(NC(=O)c3ccncc3)cccc2C1=O
IC50 [9]: > 20 µM (inactive)

Compound: Oc1cc2c(c(Cl)c1O)CCNCC2c1ccccc1 (centres undefined)
IC50 [10]: > 29.9 µM (inactive)
EC50 (Mu-type opioid receptor): 92.5 µM (inactive)
AC50 [11]: 3.83 µM (active)
EC50 [12]: 6.54 µM (active)
IC50 (Large T antigen): > 100 µM (active)
IC50 (Galanin receptor type 3): 3.83 µM (active)
EC50 [13]: 8.14 µM (active)
IC50 (Protein skinhead-1): > 100 µM (inactive)

More lines, now with the values ahead:

AC50 (Paired box protein Pax-8): 3.91 µM (active)
IC50 [1]: 32.1 µM (inactive)
Compound: C#CCN(C[C@@H]1[C@@H](OC(=O)NCc2ccc(OC)c(OC)c2)[C@@H](OC(=O)NCc2ccc(OC)c(OC)c2)Cn2c(=O)ccc(=O)n21)S(=O)(=O)c1ccc(C)cc1

IC50 [2]: 76.9 µM (inactive)
IC50 [3]: 19.4 µM (active)
Compound: Nc1ccc2c(c1)-c1ccc(F)cc1C2=O

EC50 [4]: 3.16 µM (active)
EC50 [5]: 2.66 µM (active)
Compound: O=C(c1cccc(Cl)c1)N1CCN(c2cc(-c3ccccc3)nc3cc(-c4cccc(Cl)c4)nn23)CC1
